Experimental data: US9249128B2 (priority 2010, dated 2016)
Where two headings read alike, the source gives them in different places.

Biological target: T1, KIAA1363 (Mus musculus, UniProt Q8BLF1)
T1 construct: ABPP analysis of KIAA1363 activity in mouse brain membrane proteome; from tissue; host or cells: mouse brain (membrane fraction)
T1 sequence (Q8BLF1 1-408): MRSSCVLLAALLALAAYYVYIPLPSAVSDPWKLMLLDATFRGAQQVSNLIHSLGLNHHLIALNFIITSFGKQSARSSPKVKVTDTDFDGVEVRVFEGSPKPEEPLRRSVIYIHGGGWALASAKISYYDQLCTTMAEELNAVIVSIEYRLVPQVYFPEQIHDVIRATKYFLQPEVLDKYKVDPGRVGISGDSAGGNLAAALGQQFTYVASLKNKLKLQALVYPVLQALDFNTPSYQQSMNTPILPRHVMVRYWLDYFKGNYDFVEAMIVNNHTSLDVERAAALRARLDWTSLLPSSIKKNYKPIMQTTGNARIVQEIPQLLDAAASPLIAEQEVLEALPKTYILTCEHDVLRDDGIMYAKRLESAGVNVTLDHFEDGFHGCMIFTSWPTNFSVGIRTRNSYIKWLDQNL
Assay: Gel-based competitive ABPP of KIAA1363 in mouse brain membrane proteome (FP-rhodamine)
Type: biochemical
Method: In various embodiments, the invention provides a method of inhibiting a serine hydrolase, comprising contacting the hydrolase with a compound of formula (I), e.g., a compound selected from set of compounds shown in Table 1, below. […] IC50 values were derived from ABPP analysis of KIAA1363 activity in mouse brain membrane proteome and are averages of three replicates. Inhibitors were added to the proteome for 30 min before addition of FP-rhodamine (1 μM, 30 min).
Tissues were Dounce-homogenized in PBS, pH 7.4, followed by a low-speed spin (1,400 g, 5 min) to remove debris. The supernatant was then subjected to centrifugation (100,000×g, 45 min) to provide the cytosolic fraction in the supernatant and the unsoluble fraction as a pellet. The pellet was washed and resuspended in PBS buffer by sonication. Total protein concentration in each fraction was determined using a protein assay kit (Bio-Rad). Samples were stored at −80° C. until use.
For ABPP experiments, cell lysate and tissue proteomes were treated with 1 μM FP-rhodamine for 30 min at room temperature (50 μL total reaction volume) as described previously (Nomura et al., 2010). Reactions were quenched with one volume of standard 4×SDS/PAGE loading buffer (reducing), separated by SDS/PAGE (10% acrylamide), and visualized in-gel with a Hitachi FMBio IIe flatbed fluorescence scanner (MiraiBio). Inhibitors were preincubated prior (30 min or 4 h at 37° C. in vitro or in situ, respectively) to the addition of FP-rhodamine.

[1] = mouse brain membrane proteome, inhibitor 30 min before FP-rhodamine (1 μM, 30 min), averages of three replicates, read-out: IC50 (KIAA1363)
[2] = screened against KIAA1363, Table 1, read-out: IC50 values of less than 1 micromolar

| SMILES | IC50 [1] | IC50 [2] | IC50 |
| --- | --- | --- | --- |
| CCOc1ccccc1OC(=O)NCCCc1ccccc1 | 1.79 µM |  |  |
| Cc1ccc2ccccc2c1OC(=O)NCc1ccc(-c2ccccc2)cc1 | > 50 µM |  |  |
| CCOc1ccccc1OC(=O)NCc1ccc(-c2ccccc2)cc1 | > 50 µM |  |  |
| CCOc1ccccc1OC(=O)NCCc1cccs1 | > 10 µM |  |  |
| CCOc1ccccc1OC(=O)NCCc1ccc2ccccc2c1 | 0.89 µM | < 1 µM |  |
| CC1(C)Cc2cccc(OC(=O)NCc3ccc(I)cc3)c2O1 [JW147, 2,2-dimethyl-2,3-dihydrobenzofuran-7-yl 4-iodobenzylcarbamate] | 0.148 µM | < 1 µM |  |
| O=C(NCCc1ccc(F)cc1)Oc1ccc(-n2cccc2)cc1 [JW382, 4-(1H-pyrrol-1-yl)phenyl 4-fluorophenethylcarbamate] | 1.2 µM |  |  |
| O=C(NCc1ccc(C(F)(F)F)cc1)Oc1ccc(-n2cccc2)cc1 [JW383, 4-(1H-pyrrol-1-yl)phenyl 4-(trifluoromethyl)benzylcarbamate] | 0.997 µM | < 1 µM |  |
| COc1ccc(CNC(=O)Oc2ccc(-n3cccc3)cc2)cc1 [JW384, 4-(1H-pyrrol-1-yl)phenyl 4-methoxybenzylcarbamate] | 0.668 µM | < 1 µM |  |
| Cc1ccc2ccccc2c1OC(=O)NCc1ccc(C(F)(F)F)cc1 [JW385, 2-methylnaphthalen-1-yl 4-(trifluoromethyl)benzylcarbamate] | > 50 µM |  |  |
| COc1ccc(CNC(=O)Oc2c(C)ccc3ccccc23)cc1 [JW386, 2-methylnaphthalen-1-yl 4-methoxybenzylcarbamate] | > 10 µM |  |  |
| CCOc1ccccc1OC(=O)NCc1ccc(C(F)(F)F)cc1 [JW387, 2-ethoxyphenyl 4-(trifluoromethyl)benzylcarbamate] | 2.82 µM |  |  |
| CCOc1ccccc1OC(=O)NCc1ccc(OC)cc1 [JW388, 2-ethoxyphenyl 4-methoxybenzylcarbamate] | 1.61 µM |  |  |
| O=C(NCc1ccc(OC(F)(F)F)cc1)Oc1ccc(-n2cccc2)cc1 [JW389, 4-(1H-pyrrol-1-yl)phenyl 4-(trifluoromethoxy)benzylcarbamate] | 0.263 µM | < 1 µM |  |
| Cc1ccc2ccccc2c1OC(=O)NCc1ccc(OC(F)(F)F)cc1 [JW390, 2-methylnaphthalen-1-yl 4-(trifluoromethoxy)benzylcarbamate] | > 10 µM |  |  |
| CCOc1ccccc1OC(=O)NCc1ccc(OC(F)(F)F)cc1 [JW391, 2-ethoxyphenyl 4-(trifluoromethoxy)benzylcarbamate] | 1.05 µM |  |  |
| O=C(NCc1ccc(Cl)cc1)Oc1ccc(-n2cccc2)cc1 [JW392, 4-(1H-pyrrol-1-yl)phenyl 4-chlorobenzylcarbamate] | 0.385 µM | < 1 µM |  |
| O=C(NCCCc1ccccc1)Oc1ccc(-n2cccc2)cc1 [JW393, 4-(1H-pyrrol-1-yl)phenyl (3-phenylpropyl)carbamate] | > 50 µM |  |  |
| Cc1ccc2ccccc2c1OC(=O)NCc1ccc(Cl)cc1 [JW395, 2-methylnaphthalen-1-yl 4-chlorobenzylcarbamate] | > 50 µM |  |  |
| Cc1ccc2ccccc2c1OC(=O)NCCCc1ccccc1 [JW396, 2-methylnaphthalen-1-yl (3-phenylpropyl)carbamate] | > 10 µM |  |  |
| CCOc1ccccc1OC(=O)NCc1ccc(Cl)cc1 [JW398, 2-ethoxyphenyl 4-chlorobenzylcarbamate] | 0.977 µM | < 1 µM |  |
| CCCCc1ccc(CNC(=O)Oc2c(C)ccc3ccccc23)cc1 [JW406, 2-methylnaphthalen-1-yl 4-butylbenzylcarbamate] | > 50 µM |  |  |
| CCCCc1ccc(CNC(=O)Oc2ccccc2OCC)cc1 [JW409, 2-ethoxyphenyl 4-butylbenzylcarbamate] | > 50 µM |  |  |
| O=C(NCCc1ccc(Br)cc1)Oc1ccc(-n2cccc2)cc1 [JW412, 4-(1H-pyrrol-1-yl)phenyl 4-bromophenethylcarbamate] | 1.66 µM |  |  |
| O=C(NCCc1cccs1)Oc1ccc(-n2cccc2)cc1 [JW413, 4-(1H-pyrrol-1-yl)phenyl (2-(thiophen-2-yl)ethyl)carbamate] | 0.618 µM | < 1 µM |  |

| SMILES | IC50 [1] | IC50 [2] | IC50 |
| --- | --- | --- | --- |
| O=C(NCCc1ccc2c(c1)OCO2)Oc1ccc(-n2cccc2)cc1 [JW414, 4-(1H-pyrrol-1-yl)phenyl (2-(benzo[d][1,3]dioxol-5-yl)ethyl)carbamate] | > 10 µM |  |  |
| Cc1ccc2ccccc2c1OC(=O)NCCc1ccc(Br)cc1 [JW415, 2-methylnaphthalen-1-yl 4-bromophenethylcarbamate] | 1.08 µM |  |  |
| Cc1ccc2ccccc2c1OC(=O)NCCc1cccs1 [JW416, 2-methylnaphthalen-1-yl (2-(thiophen-2-yl)ethyl)carbamate] | 3.31 µM |  |  |
| Cc1ccc2ccccc2c1OC(=O)NCCc1ccc2c(c1)OCO2 [JW417, 2-methylnaphthalen-1-yl (2-(benzo[d][1,3]dioxol-5-yl)ethyl)carbamate] | 0.142 µM | < 1 µM |  |
| CCOc1ccccc1OC(=O)NCCc1ccc(Br)cc1 [JW418, 2-ethoxyphenyl 4-bromophenethylcarbamate] | 0.329 µM | < 1 µM |  |
| CCOc1ccccc1OC(=O)NCCc1ccc2c(c1)OCO2 [JW420, 2-ethoxyphenyl (2-(benzo[d][1,3]dioxol-5-yl)ethyl)carbamate] | 1.34 µM |  |  |
| O=C(NCCc1ccc(Cl)c(Cl)c1)Oc1ccc(-n2cccc2)cc1 [JW421, 4-(1H-pyrrol-1-yl)phenyl 3,4-dichlorophenethylcarbamate] | > 10 µM |  |  |
| Cc1ccc2ccccc2c1OC(=O)NCCc1ccc(Cl)c(Cl)c1 [JW422, 2-methylnaphthalen-1-yl 3,4-dichlorophenethylcarbamate] | 0.665 µM | < 1 µM |  |
| CCOc1ccccc1OC(=O)NCCc1ccc(Cl)c(Cl)c1 [JW423, 2-ethoxyphenyl 3,4-dichlorophenethylcarbamate] | 0.498 µM | < 1 µM |  |
| O=C(NCCN1CCOCC1)Oc1ccc(-n2cccc2)cc1 [JW425, 4-(1H-pyrrol-1-yl)phenyl (2-morpholinoethyl)carbamate] |  |  | > 50 µM |
| O=C(NCCc1cc2ccccc2[nH]1)Oc1ccc(-n2cccc2)cc1 [JW426, 4-(1H-pyrrol-1-yl)phenyl (2-(1H-indol-2-yl)ethyl)carbamate] | > 50 µM |  |  |
| Cc1ccc2ccccc2c1OC(=O)NCCN1CCOCC1 [JW427, 2-methylnaphthalen-1-yl (2-morpholinoethyl)carbamate] |  |  | > 50 µM |
| Cc1ccc2ccccc2c1OC(=O)NCCc1cc2ccccc2[nH]1 [JW428, 2-methylnaphthalen-1-yl (2-(1H-indol-2-yl)ethyl)carbamate] | 3.94 µM |  |  |
| CCOc1ccccc1OC(=O)NCCN1CCOCC1 [JW429, 2-ethoxyphenyl (2-morpholinoethyl)carbamate] |  |  | > 50 µM |
| CCOc1ccccc1OC(=O)NCCc1cc2ccccc2[nH]1 [JW430, 2-ethoxyphenyl (2-(1H-indol-2-yl)ethyl)carbamate] | > 50 µM |  |  |
| COc1ccc(CCNC(=O)Oc2ccc(-n3cccc3)cc2)cc1 [JW431, 4-(1H-pyrrol-1-yl)phenyl 4-methoxyphenethylcarbamate] | 1.29 µM |  |  |
| COc1cccc(CCNC(=O)Oc2ccc(-n3cccc3)cc2)c1 [JW432, 4-(1H-pyrrol-1-yl)phenyl 3-methoxyphenethylcarbamate] | > 10 µM |  |  |
| O=C(NCCC(c1ccccc1)c1ccccc1)Oc1ccc(-n2cccc2)cc1 [JW433, 4-(1H-pyrrol-1-yl)phenyl (3,3-diphenylpropyl)carbamate] | > 50 µM |  |  |
| O=C(NCC(c1ccccc1)c1ccccc1)Oc1ccc(-n2cccc2)cc1 [JW434, 4-(1H-pyrrol-1-yl)phenyl (2,2-diphenylethyl)carbamate] | > 50 µM |  |  |
| O=C(NCCc1ccc2ccccc2c1)Oc1ccc(-n2cccc2)cc1 [JW435, 4-(1H-pyrrol-1-yl)phenyl (2-(naphthalen-2-yl)ethyl)carbamate] | > 50 µM |  |  |
| COc1ccc(CCNC(=O)Oc2c(C)ccc3ccccc23)cc1 [JW436, 2-methylnaphthalen-1-yl 4-methoxyphenethylcarbamate] | 3 µM |  |  |
| COc1cccc(CCNC(=O)Oc2c(C)ccc3ccccc23)c1 [JW437, 2-methylnaphthalen-1-yl 3-methoxyphenethylcarbamate] | 0.209 µM | < 1 µM |  |
| Cc1ccc2ccccc2c1OC(=O)NCCC(c1ccccc1)c1ccccc1 [JW438, 2-methylnaphthalen-1-yl (3,3-diphenylpropyl)carbamate] | > 50 µM |  |  |
| Cc1ccc2ccccc2c1OC(=O)NCC(c1ccccc1)c1ccccc1 [JW439, 2-methylnaphthalen-1-yl (2,2-diphenylethyl)carbamate] | > 50 µM |  |  |
